Counter-ions that a name gives are not always drawn.
Target: SARS-CoV-2 Mac1 (Severe acute respiratory syndrome coronavirus 2, UniProt P0DTD1)
Assay: biochemical
Conditions: for inhibition at 100 µM: read-out: %inhibition; for %inhibition: 100 µM, inhibitor

| SMILES | inhibition at 100 µM | %inhibition |
| --- | --- | --- |
| CCc1ccc(C(=O)C(C)CN2CCCCC2)cc1 (stereo not shown) [Eperisone hydrochloride] | 10.4% | – |
| O=C(/C=C/c1cccc(S(=O)(=O)Nc2ccccc2)c1)NO [Belinostat (PXD101)] | 20% | – |
| C[N+](C)(C)CCOC(=O)CCC(=O)OCC[N+](C)(C)C [Succinylcholine Chloride Dihydrate] | 0% | – |
| Clc1ccc(C(Cn2ccnc2)OCc2c(Cl)cccc2Cl)c(Cl)c1 (stereo not shown) [Isoconazole nitrate] | 34.7% | – |
| CC(C(=O)O)c1ccc(CC2CCCC2=O)cc1 (stereo not shown) [Loxoprofen] | – | 5.364% |
| CC1(C)S[C@@H]2[C@H](NC(=O)Cc3ccccc3)C(=O)N2[C@H]1C(=O)O [Penicillin G Sodium] | 5.64% | – |
| N=C(N)NCCC[C@H](N)C(=O)O [L-Arginine HCl (L-Arg)] | 0% | – |
| Cc1cn([C@H]2C=C[C@@H](CO)O2)c(=O)[nH]c1=O [Stavudine (d4T)] | 0% | – |
| CN(Cc1cc(Br)cc(Br)c1N)C1CCCCC1 [Bromhexine HCl] | 0% | – |
| CCCCCOc1ccccc1/C(=C\SC)n1ccnc1 [Neticonazole Hydrochloride] | 0% | – |
| CCN(CC)Cc1cc(Nc2ccnc3cc(Cl)ccc23)ccc1O [Amodiaquine hydrochloride] | – | 7.946% |
| NC(=O)c1nc(F)cnc1O [Favipiravir (T-705)] | 0.111% | – |
| COc1cc(Nc2ncc(F)c(Nc3ccc4c(n3)N(COP(=O)(O)O)C(=O)C(C)(C)O4)n2)cc(OC)c1OC [Fostamatinib (R788)] | – | 0% |
| Cn1cnc([N+](=O)[O-])c1Sc1ncnc2[nH]cnc12 [Azathioprine] | 18.9% | – |
| CCC(=O)c1c(O)cc(O)cc1O [Flopropione] | 7.24% | – |
| C=C1[C@H](CO)[C@@H](O)C[C@@H]1n1cnc2c(=O)[nH]c(N)nc21 [Entecavir] | – | 0% |

| SMILES | inhibition at 100 µM | %inhibition |
| --- | --- | --- |
| Cc1nnc(NS(=O)(=O)c2ccc(N)cc2)s1 [Sulfamethizole] | 15.9% | – |
| Nc1nnc(-c2cccc(Cl)c2Cl)c(N)n1 [Lamotrigine] | 12.3% | – |
| CS(=O)(=O)CCNCc1ccc(-c2ccc3ncnc(Nc4ccc(OCc5cccc(F)c5)c(Cl)c4)c3c2)o1 [Lapatinib ditosylate monohydrate] | – | 13.25% |
| CCCCN(CCCC)CC(O)c1cc(Cl)cc2c1-c1ccc(Cl)cc1/C2=C/c1ccc(Cl)cc1 (stereo not shown) [Lumefantrine] | 0% | – |
| CCn1cc(C(=O)O)c(=O)c2cc(F)c(N3CCNCC3)cc21 [Norfloxacin] | 24.7% | – |
| CNC(=C[N+](=O)[O-])NCCSCc1csc(CN(C)C)n1 [Nizatidine] | 46.1% | – |
| Cc1nnc(SCC2=C(C(=O)O)N3C(=O)[C@@H](NC(=O)Cn4cnnn4)[C@H]3SC2)s1 [Cefazolin Sodium] | 2.52% | – |
| CC(C)(O/N=C(\C(=O)N[C@@H]1C(=O)N2C(C(=O)[O-])=C(C[n+]3ccccc3)CS[C@H]12)c1csc(N)n1)C(=O)O [Ceftazidime Pentahydrate] | 0% | – |
| Cc1c(-c2ccc(O)cc2)n(Cc2ccc(OCCN3CCCCCC3)cc2)c2ccc(O)cc12 [Bazedoxifene Acetate] | – | 3.518% |
| NCC1(CC(=O)O)CCCCC1 [Gabapentin] | 0% | – |
| CCCCC[C@H](O)/C=C/[C@H]1[C@H](O)CC(=O)[C@@H]1CCCCCCC(=O)O [Alprostadil] | 0% | – |
| N[C@@H](CC(=O)N1CCn2c(nnc2C(F)(F)F)C1)Cc1cc(F)c(F)cc1F [Sitagliptin] | 0% | – |
| COc1c(-c2ccc3cc(NS(C)(=O)=O)ccc3c2)cc(-n2ccc(=O)[nH]c2=O)cc1C(C)(C)C [Dasabuvir(ABT-333)] | 0.42% | – |
| COC(=O)C1=C(C)NC(C)=C(C(=O)OCCN2CCN(C(c3ccccc3)c3ccccc3)CC2)C1c1cccc([N+](=O)[O-])c1 (stereo not shown) [Manidipine 2HCl] | 0% | – |
| CO[C@@]12[C@H](COC(N)=O)C3=C(C(=O)C(C)=C(N)C3=O)N1C[C@@H]1N[C@@H]12 [Mitomycin C] | 10.1% | – |

Reference: doi:[…]/2021.10.07.463234v2 (biorxiv, 2021)
